Laboratory results as given in patent US4871528A, “Pharmaceutical compositions having antineoplastic activity” (Boehringer Biochemia Robin SpA, priority 1986, dated 1989).
≈ marks a conversion by molar mass, not a printed value. Like-named read-outs stand apart in the source and are kept apart here.

How the values were obtained:
[1] = test system: advanced and relapsing ovarian tumor; details: administered without glutathione; severe side-effects; cited from earlier work
[2] = test system: advanced and relapsing ovarian tumor; assay: high-dose cis-platinum+GSH in a patient with advanced and relapsing ovarian tumor (Example 3A); assay type: in vivo, human; details: in combination with glutathione
Method: However, in the therapeutical practice, the treatment is usually interrupted after 2 or 3 cycles (400 mg/m^2 or 600 mg/m^2) because of the onset of serious side-effects, which can even be fatal.
A patient having an advanced and relapsing ovarian tumor previously treated with cis-platinum, was treated with a combination of cis-platinum+GSH every four weeks. Cis-platinum was administered at a weekly dosage of 200 mg/m^2 (40 mg/m^2 i.v. in normal saline at 1-5 days) for five weeks; GSH was administered i.v. at a dosage of 35 mg/ mg of cis-platinum in normal saline, 30 minutes before administration of cis-platinum. The week of administration (5 administrations) was followed by three weeks of rest, and then the cycle was repeated, and so on, for a total of 5 cycles of administration extending over 17 weeks (5 weeks of actual treatment and 12 weeks (3 weeks X 4) of rest intervals).

[3] = test system: human HT-29 cells (colon carcinoma); assay: In vitro activity of GSH and methotrexate on human HT-29 cells; assay type: cell-based; details: MTX 24 h, read-out: concentration causing 50% of cell death
Method: (5) In vitro activity of GSH and methotrexate (MTX) on human HT-29 cells (colon carcinoma). Human HT-29 cells (colon carcinoma) were used; the cells were pre-treated with GSH at the concentrations of 20 and 40 mg/ml and then exposed to MTX at the concentrations of 0.05, 0.1, 0.5 and 1 mg/ml for 24 h. The concentrations causing 50% of cell death turned out to be 0.12 mg/ml in the absence of GSH and about 0.04-0.06 mg/ml in the presence of GSH. The cells were cultivated in RPMI 1640 medium+10% of fetal calf serum.

P388 leukemia [4] = assay: Effect of GSH (i.v.) at different doxorubicin dosages (i.p.) on P388 leukemia in mice (Table 2); assay type: in vivo; details: for LTS >60 days / T/C % / TOX: in combination GSH 1500 mg/kg i.v.; for TMS: in combination GSH 1500 mg/kg i.v. 30' before
Method: The experimental conditions are similar to that of the previous test.
In these tests, the glutathione has been administered i.v., 30' before of the optional i.p. administration of anthracycline, doxorubicin.
The GSH treated animals received an equal amount of drug (1500 mg/kg) whereas the doxorubicin treated animals received i.p. scalar amounts of anthracycline. The animals consecutively treated with GSH and DX received the two drugs in the ratios of 100, 125, 150 and 200 mg of GSH per mg of DX.

[5] = test system: anthracycline (doxorubicin) induced myocardiotoxicity; assay: Protective effect of glutathione on doxorubicin induced myocardiotoxicity in rats; assay type: in vivo, Sprague Dawley rats; details: doxorubicin 3 mg/kg i.v. and/or GSH i.v. 30 minutes before, every 7 days, 4 times; 8 weeks
Method: Twenty-four Sprague Dawley rats, weighing 150-200 g, fed with standard diet and water "ad libitum", were randomized in 4 groups (A,B,C,D) 6 animals each.
Six animals were treated i.v. in the morning (10 am.) with […]) dissolved in normal saline (total injected volume 1 ml/kg). After 30 minutes, the same animals were treated i.v. with doxorubicin (3 mg/kg) dissolved in normal saline (total injected volume 1 ml/kg).
The treatment has been then repeated after 7 days, for 4 consecutive times as a whole.
Six animals were treated similarly to group A, except that glutathione was omitted and substituted with normal saline only.
Six animals were treated similarly to group A, except that doxorubicin was substituted with normal saline only.
Six animals were treated similarly to group A except that both drugs were substituted with normal saline.
The day of the first administration was defined "zero day" and all the animals were killed after 8 weeks from the start of the experiment.
During the experiment, starting from the zero time, all the animals were evaluated weekly for body weight increase, electrocardiographic intervals Q-T and S-T.
After the 8-week experiment, the necroscopic examination allowed to evaluate for each animal the degree of myocardial lesions expressed as an average of vacuolate cells for 10 observation fields at the optical microscope (200 x).

P388 leukemia [6] = assay type: in vivo
Method: In the Table 1, the results obtained in CD2F1 mice i.p. treated at the day 0 with […] P388 leukemia cells and treated. i.p. at the day 1 with doxorubicin (DX) (7.5 mg/kg) and/or with GSH (333 mg/mg doxorubicin) are reported.
The GSH was administered 30 min. before DX.
The experiment of the combination GSH+DX was repeated in 2 groups of animals.
TMS means mean survival time in days, T/C % is a percent value of the response of drug treated animals in comparison with the control, taken as 100.
TOX means the number of treated animals died before the control animals. LTS is the number of animals survived at long term (2 months at least).
It should be stressed that the test used an experimental model, the P388 leukemia, characterized by an exclusively intraperitoneal tumor growth, i.e. a growth in the cavity wherein the insulation of the tumoral cells has been carried out.

P388 leukemia [7] = assay: GSH and Doxorubicin effect on P388 leukemia in CD2F1 mice (Table 3); assay type: in vivo; details: GSH 375 mg/kg i.v. and/or DX 7,5 mg/kg i.p. (GSH/DX 50)
Method: (§1) The experiments were carried out in a similar way to the experimental scheme of the previous tests 2 and 3. The glutathione was administered i.v. 30, before of doxorubicin. In the tests, whose experimental data are reported in the Tables 3 and 4, the doxorubicin is administered i.p. at a sub-optimal dose level (for the used treatment schedule), in order to evidentiate the synergic effect of the glutathione treatment.
In the test of Table 3 wherein P388 leukemic cells were inoculated, variable dosages of glutathione were used, with respect to the fixed dose of DX (7.5 mg/kg) so as to provide GSH/DX ratios respectively of 20 and 50 mg of GSH per mg of DX.

P388 leukemia [8] = assay: Effect of GSH (i.v.) at different doxorubicin dosages (i.p.) on P388 leukemia in mice (Table 2); assay type: in vivo; details: DX 12,5 mg/kg i.p.
[9] = test system: P388/DX resistant leukemic cells; assay: Effect of GSH and doxorubicin on DX-resistant P388/DX leukemia in CD2F1 mice (Table 4); assay type: in vivo
Method: as §1
In the case of inoculation of P388/DX resistant leukemic cells an intermediate dose of glutathione was administered, corresponding to GSH/DX ratio of 25 mg/mg (total dose of GSH 187.5).

[10] = day 1 i.p.: DX 7.5 mg/kg and/or GSH 333 mg/mg doxorubicin
[11] = in combination GSH 1500 mg/kg i.v.
[12] = GSH 187,5 mg/kg i.v. and/or DX 7,5 mg/kg i.p.

N.N.[Cl][Pt][Cl] [CDDP, cis-diamine-dichloroplatinum]
maximum dosage of cis-platinum [1]: 400-600 mg/m^2
maximum applicable dosage of cis-platinum [2]: about 1000 mg/m^2

CN(Cc1cnc2nc(N)nc(N)c2n1)c1ccc(C(=O)N[C@@H](CCC(=O)O)C(=O)O)cc1 [MTX, methotrexate]
IC50 ([3]; in the absence of GSH): 120 µg/mL (≈ 264 µM)
IC50 ([3]; in the presence of GSH (pre-treated at 20 and 40 mg/ml)): 40 to 60 µg/mL

COc1cccc2c1C(=O)c1c(O)c3c(c(O)c1C2=O)C[C@@](O)(C(=O)CO)C[C@@H]3O[C@H]1C[C@H](N)[C@H](O)[C@H](C)O1 [DX, doxorubicin]
LTS >60 days (P388 leukemia [4]; DX 10 mg/kg i.p.): 0/8
T/C % (P388 leukemia [4]; DX 10 mg/kg i.p.): 170%
TOX (P388 leukemia [4]; DX 10 mg/kg i.p.): 0/8
TMS (P388 leukemia [4]; DX 10 mg/kg i.p.): 17 days
LTS >60 days (P388 leukemia [4]; DX 15 mg/kg i.p.): 0/8
T/C % (P388 leukemia [4]; DX 15 mg/kg i.p.): 60%
TOX (P388 leukemia [4]; DX 15 mg/kg i.p.): 8/8
TMS (P388 leukemia [4]; DX 15 mg/kg i.p.): 6 days
LTS >60 days (P388 leukemia [4]; DX 7,5 mg/kg i.p.): 0/8
T/C % (P388 leukemia [4]; DX 7,5 mg/kg i.p.): 155%
TOX (P388 leukemia [4]; DX 7,5 mg/kg i.p.): 0/8
TMS (P388 leukemia [4]; DX 7,5 mg/kg i.p.): 15,5 days
LTS >60 days (P388 leukemia [4]; DX 12,5 mg/kg i.p.): 0/8
body growth curve, ECG recording (Q-T, S-T), number of vacuolate myocardial cells [5]: toxic and cardiological effects
LTS (number of animals survived at long term, 2 months at least) (P388 leukemia [6]; [10]): 0/10
T/C % (P388 leukemia [6]; [10]): 140%
TOX (number of treated animals died before the control animals) (P388 leukemia [6]; [10]): 0/10
TMS (mean survival time) (P388 leukemia [6]; day 1 i.p.: DX 7.5 mg/kg and/or GSH 333 mg/mg doxorubicin 30 min. before DX): 16 days
LTS (P388 leukemia [7]): 0/10
T/C % (P388 leukemia [7]): 163%
TMS (P388 leukemia [7]): 16,7 days
TOX (P388 leukemia [7]): 0/10
T/C % (P388 leukemia [8]; [11]): 120%
TOX (P388 leukemia [8]; [11]): 4/8
TMS (P388 leukemia [8]; in combination GSH 1500 mg/kg i.v. 30' before): 12 days
LTS [9, 12]: 0/10
T/C % [9, 12]: 118%
TOX [9, 12]: 0/10
TMS ([9]; GSH 187,5 mg/kg i.v. and/or DX 7,5 mg/kg i.p. (GSH/DX 25 mg/mg)): 11,4 days
